Literature values in PMC10872542 (Structure (London, England : 1993), 2023).

Test system: TRPV5
Details: read-out: IC50 of TRPV5 inhibition

IC50 [nM]	SMILES
~3000	CC(OC(=O)CC1Sc2ccccc2NC1=O)c1nc2scc(-c3ccccc3)c2c(=O)[nH]1 (stereo not drawn) [ZINC9155420]
~100	O=C(CCN1C(=O)COc2ccccc21)OCc1nc2scc(-c3ccccc3)c2c(=O)[nH]1 [ZINC17988990]
~100	Cl.Cl.Cl.Cl.Cl.Cl.N.N.N.N.N.N.N.N.N.N.N.N.N.N.[O-2].[O-2].[Ru+3].[Ru+3].[Ru+4] [ruthenium red]
